Measurements from PubChem BioAssay (NCI).
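GI50 = concentration required for 50% inhibition of growth. At the TGI there is no net growth.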

Key:
Test in all cases: DTP human tumour cell line panel, 384-well format
786-0 renal = test system: 786-0 renal
A498 renal = test system: A498 renal
A549 NSCLC = test system: A549 NSCLC
BT-549 breast = test system: BT-549 breast
CAKI-1 renal = test system: CAKI-1 renal
CCRF-CEM leukemia = test system: CCRF-CEM leukemia
COLO 205 colon = test system: COLO 205 colon
DU-145 prostate = test system: DU-145 prostate
EKVX NSCLC = test system: EKVX NSCLC
HCC-2998 colon = test system: HCC-2998 colon
HCT-116 colon = test system: HCT-116 colon
HCT-15 colon = test system: HCT-15 colon
HL-60(TB) leukemia = test system: HL-60(TB) leukemia
HOP-62 NSCLC = test system: HOP-62 NSCLC
HOP-92 NSCLC = test system: HOP-92 NSCLC
HS 578T breast = test system: HS 578T breast
HT29 colon = test system: HT29 colon
IGROV1 ovarian = test system: IGROV1 ovarian
KM12 colon = test system: KM12 colon
LOX IMVI melanoma = test system: LOX IMVI melanoma
M14 melanoma = test system: M14 melanoma
MALME-3M melanoma = test system: MALME-3M melanoma
MCF7 breast = test system: MCF7 breast
MDA-MB-231 breast = test system: MDA-MB-231 breast
MDA-MB-435 melanoma = test system: MDA-MB-435 melanoma
MOLT-4 leukemia = test system: MOLT-4 leukemia
NCI-H226 lung = test system: NCI-H226 lung
NCI-H23 lung = test system: NCI-H23 lung
NCI-H322M lung = test system: NCI-H322M lung
NCI-H460 NSCLC = test system: NCI-H460 NSCLC
NCI/ADR-RES ovarian = test system: NCI/ADR-RES ovarian
OVCAR-3 ovarian = test system: OVCAR-3 ovarian
OVCAR-4 ovarian = test system: OVCAR-4 ovarian
OVCAR-8 ovarian = test system: OVCAR-8 ovarian
RPMI-8226 leukemia = test system: RPMI-8226 leukemia
RXF 393 renal = test system: RXF 393 renal
SF-268 CNS = test system: SF-268 CNS
SF-539 CNS = test system: SF-539 CNS
SK-MEL-2 melanoma = test system: SK-MEL-2 melanoma
SK-MEL-28 melanoma = test system: SK-MEL-28 melanoma
SK-MEL-5 melanoma = test system: SK-MEL-5 melanoma
SK-OV-3 ovarian = test system: SK-OV-3 ovarian
SN12C renal = test system: SN12C renal
SNB-19 CNS = test system: SNB-19 CNS
SNB-75 CNS = test system: SNB-75 CNS
SR leukemia = test system: SR leukemia
SW-620 colon = test system: SW-620 colon
TK-10 renal = test system: TK-10 renal
U251 glioblastoma = test system: U251 glioblastoma
UACC-257 melanoma = test system: UACC-257 melanoma
UACC-62 melanoma = test system: UACC-62 melanoma
UO-31 renal = test system: UO-31 renal

C[C@@]1(O)CCC[C@H]1n1c(=O)c(C(F)F)cc2cnc(NC3CCN(S(C)(=O)=O)CC3)nc21
GI50 (786-0 renal): 1850 nM | TGI (786-0 renal): > 100000 nM | GI50 (A498 renal): 1750 nM | TGI (A498 renal): > 100000 nM | GI50 (A549 NSCLC): 1980 nM | TGI (A549 NSCLC): > 100000 nM | GI50 (BT-549 breast): 866 nM | TGI (BT-549 breast): 3040 nM | GI50 (CAKI-1 renal): 784 nM | TGI (CAKI-1 renal): > 100000 nM | GI50 (CCRF-CEM leukemia): 357 nM | TGI (CCRF-CEM leukemia): 1770 nM | GI50 (COLO 205 colon): 1330 nM | TGI (COLO 205 colon): 4740 nM | GI50 (DU-145 prostate): 1630 nM | TGI (DU-145 prostate): 6380 nM | GI50 (EKVX NSCLC): 1900 nM | TGI (EKVX NSCLC): 5150 nM | GI50 (HCC-2998 colon): 1380 nM | TGI (HCC-2998 colon): 3900 nM | GI50 (HCT-116 colon): 198 nM | TGI (HCT-116 colon): > 100000 nM | GI50 (HCT-15 colon): 1790 nM | TGI (HCT-15 colon): 15800 nM | GI50 (HL-60(TB) leukemia): 72.1 nM | TGI (HL-60(TB) leukemia): 1200 nM | GI50 (HOP-62 NSCLC): 1800 nM | TGI (HOP-62 NSCLC): 6590 nM | GI50 (HOP-92 NSCLC): 2050 nM | TGI (HOP-92 NSCLC): > 100000 nM | GI50 (HS 578T breast): 1920 nM | TGI (HS 578T breast): 4040 nM | GI50 (HT29 colon): 1830 nM | TGI (HT29 colon): > 100000 nM | GI50 (IGROV1 ovarian): 1620 nM | TGI (IGROV1 ovarian): > 100000 nM | GI50 (KM12 colon): 1070 nM | TGI (KM12 colon): 3920 nM | GI50 (LOX IMVI melanoma): 1600 nM | TGI (LOX IMVI melanoma): > 100000 nM | GI50 (M14 melanoma): 1470 nM | TGI (M14 melanoma): 5490 nM | GI50 (MALME-3M melanoma): 1440 nM | TGI (MALME-3M melanoma): 3160 nM | GI50 (MCF7 breast): 128 nM | TGI (MCF7 breast): 19100 nM | GI50 (MDA-MB-231 breast): 2340 nM | TGI (MDA-MB-231 breast): > 100000 nM | GI50 (MDA-MB-435 melanoma): 1630 nM | TGI (MDA-MB-435 melanoma): 9280 nM | GI50 (MOLT-4 leukemia): 445 nM | TGI (MOLT-4 leukemia): 1930 nM | GI50 (NCI-H226 lung): 1100 nM | TGI (NCI-H226 lung): > 100000 nM | GI50 (NCI-H23 lung): 1680 nM | TGI (NCI-H23 lung): 3300 nM | GI50 (NCI-H322M lung): 2070 nM | TGI (NCI-H322M lung): 5800 nM | GI50 (NCI-H460 NSCLC): 58.9 nM | TGI (NCI-H460 NSCLC): 2180 nM | GI50 (NCI/ADR-RES ovarian): 21000 nM | TGI (NCI/ADR-RES ovarian): > 100000 nM | GI50 (OVCAR-3 ovarian): 1520 nM | TGI (OVCAR-3 ovarian): 5570 nM | GI50 (OVCAR-4 ovarian): 3040 nM | TGI (OVCAR-4 ovarian): 7150 nM | GI50 (OVCAR-8 ovarian): 1540 nM | TGI (OVCAR-8 ovarian): > 100000 nM | GI50 (RPMI-8226 leukemia): 29 nM | TGI (RPMI-8226 leukemia): 95.1 nM | GI50 (RXF 393 renal): 1440 nM | TGI (RXF 393 renal): 2880 nM | GI50 (SF-268 CNS): 1690 nM | TGI (SF-268 CNS): 4040 nM | GI50 (SF-539 CNS): 1300 nM | TGI (SF-539 CNS): 2890 nM | GI50 (SK-MEL-2 melanoma): 2250 nM | TGI (SK-MEL-2 melanoma): 4210 nM | GI50 (SK-MEL-28 melanoma): 1210 nM | TGI (SK-MEL-28 melanoma): 2910 nM | GI50 (SK-MEL-5 melanoma): 99.3 nM | TGI (SK-MEL-5 melanoma): 2280 nM | GI50 (SK-OV-3 ovarian): 3010 nM | TGI (SK-OV-3 ovarian): > 100000 nM | GI50 (SN12C renal): 1990 nM | TGI (SN12C renal): 4920 nM | GI50 (SNB-19 CNS): 2400 nM | TGI (SNB-19 CNS): > 100000 nM | GI50 (SNB-75 CNS): 1420 nM | TGI (SNB-75 CNS): 3020 nM | GI50 (SR leukemia): 34.4 nM | TGI (SR leukemia): 1080 nM | GI50 (SW-620 colon): 94.4 nM | TGI (SW-620 colon): > 100000 nM | GI50 (TK-10 renal): 1150 nM | TGI (TK-10 renal): > 100000 nM | GI50 (U251 glioblastoma): 2030 nM | TGI (U251 glioblastoma): 8800 nM | GI50 (UACC-257 melanoma): 1630 nM | TGI (UACC-257 melanoma): 3970 nM | GI50 (UACC-62 melanoma): 951 nM | TGI (UACC-62 melanoma): 2940 nM | GI50 (UO-31 renal): 1010 nM | TGI (UO-31 renal): 4130 nM
